# Assay results as given in patent publication US8921362B2, “6,7-dialkoxy quinazoline derivatives and methods of treating drug resistant and other tumors” (Natco Pharma Limited, priority 2008, dated 2014).
# Key:
# Assay in all cases: KinomeScan
# Format in all cases: binding
# Conditions in all cases: read-out: % Ctrl @ 10000 nM
# TNIK = target: T1, TNIK (Homo sapiens, UniProt Q9UKE5)
# T1 construct: host or cells: E. coli host derived from BL21, T7 phage
# Procedure, shortened: (§1)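 Each kinase was expressed as a T7 phage fusion, with lysates produced in log-phase BL21-derived E. coli. Captured phage after compound competition was measured by qPCR.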
# KIT(D816V) = target: T2, KIT(D816V) (Homo sapiens, UniProt P10721, D816V)
# T2 construct: host or cells: T7 phage grown in E. coli host derived from BL21
# Procedure, shortened: as §1
# [1] = target: T3, RPS6KA1(Kin.Dom.-2-C-terminal) (Homo sapiens, UniProt Q15418)
# T3 construct: RPS6KA1(Kin.Dom.-2-C-terminal); host or cells: E. coli host derived from BL21, T7 phage display
# Procedure, shortened: as §1
# PRKCH = target: T4, PRKCH (Homo sapiens, UniProt P24723)
# T4 construct: host or cells: T7 phage in E. coli host derived from BL21
# Procedure, shortened: as §1
# BRSK1 = target: T5, BRSK1 (Homo sapiens, UniProt Q8TDC3)
# T5 construct: host or cells: E. coli host derived from BL21
# Procedure, shortened: as §1
# DCAMKL3 = target: T6, DCAMKL3 (Homo sapiens, UniProt Q9C098)
# T6 construct: purchased Ambit Biosciences Corp (KinomeScan); host or cells: T7 phage in E. coli host derived from BL21
# Procedure, shortened: as §1
# [2] = target: T7, TYK2(JH1domain-catalytic) (Homo sapiens, UniProt P29597)
# T7 construct: TYK2(JH1domain-catalytic); host or cells: E. coli host derived from BL21, T7 phage
# Procedure, shortened: as §1
# NEK1 = target: T8, NEK1 (Homo sapiens, UniProt Q96PY6)
# T8 construct: host or cells: T7 phage grown in E. coli host derived from BL21
# Procedure, shortened: as §1
# DRAK2 = target: T9, DRAK2 (Homo sapiens, UniProt O94768)
# T9 construct: purchased Ambit Biosciences Corp (KinomeScan); host or cells: T7 phage in E. coli host derived from BL21
# Procedure, shortened: as §1
# NEK9 = target: T10, NEK9 (Homo sapiens, UniProt Q8TD19)
# T10 construct: host or cells: T7 phage grown in E. coli host derived from BL21
# Procedure, shortened: as §1
# ERK8 = target: T11, ERK8 (Homo sapiens, UniProt Q8TD08)
# T11 construct: purchased Ambit Biosciences Corp; host or cells: T7 phage in E. coli host derived from BL21
# Procedure, shortened: as §1
# SYK = target: T12, SYK (Homo sapiens, UniProt P43405)
# T12 construct: host or cells: T7 phage grown in E. coli (BL21-derived)
# Procedure, shortened: as §1
# [3] = target: T13, EGFR(L747-E749del, A750P) (Homo sapiens, UniProt P00533, A750P/DEL747-749)
# T13 construct: purchased Ambit Biosciences Corp (KinomeScan); host or cells: T7 phage in E. coli host derived from BL21
# Procedure, shortened: as §1
# MEK4 = target: T14, MEK4 (Homo sapiens, UniProt P45985)
# T14 construct: host or cells: E. coli host derived from the BL21 strain, infected with T7 phage
# Procedure, shortened: as §1
# CLK2 = target: T15, CLK2 (Homo sapiens, UniProt P49760)
# T15 construct: host or cells: T7 phage in E. coli host derived from BL21
# Procedure, shortened: as §1
# PCTK3 = target: T16, PCTK3 (Homo sapiens, UniProt Q07002)
# T16 construct: host or cells: E. coli host derived from BL21, infected with T7 phage
# Procedure, shortened: as §1
# DCAMKL2 = target: T17, DCAMKL2 (Homo sapiens, UniProt Q8N568)
# T17 construct: purchased Ambit Biosciences Corp (KinomeScan); host or cells: T7 phage in E. coli host derived from BL21
# Procedure, shortened: as §1
# LIMK1 = target: T18, LIMK1 (Homo sapiens, UniProt P53667)
# T18 construct: host or cells: T7 phage grown in E. coli host derived from BL21
# Procedure, shortened: as §1
# ABL1(Q252H) = target: T19, ABL1(Q252H) (Homo sapiens, UniProt P00519, Q252H)
# T19 construct: host or cells: E. coli (BL21-derived), T7 phage lysate
# Procedure, shortened: as §1
# TAOK1 = target: T20, TAOK1 (Homo sapiens, UniProt Q7L7X3)
# T20 construct: host or cells: T7 phage grown in E. coli (BL21-derived)
# Procedure, shortened: as §1
# EGFR(L858R) = target: T21, EGFR(L858R) (Homo sapiens, UniProt P00533, L858R)
# T21 construct: purchased Ambit Biosciences Corp; host or cells: T7 phage in E. coli host derived from BL21
# Procedure, shortened: as §1
# FYN = target: T22, FYN (Homo sapiens, UniProt P06241)
# T22 construct: host or cells: T7 phage in E. coli host derived from BL21
# Procedure, shortened: as §1
# [4] = target: T23, RPS6KA2(Kin.Dom.-1-N-terminal) (Homo sapiens, UniProt Q15349)
# T23 construct: RPS6KA2(Kin.Dom.-1-N-terminal); host or cells: E. coli host derived from BL21, T7 phage display
# Procedure, shortened: as §1
# [5] = target: T24, RPS6KA6(Kin.Dom.-1-N-terminal) (Homo sapiens, UniProt Q9UK32)
# T24 construct: RPS6KA6(Kin.Dom.-1-N-terminal); host or cells: E. coli host derived from BL21, T7 phage display
# Procedure, shortened: as §1
# MARK3 = target: T25, MARK3 (Homo sapiens, UniProt P27448)
# T25 construct: host or cells: E. coli host derived from the BL21 strain, infected with T7 phage
# Procedure, shortened: as §1
# ACVRL1 = target: T26, ACVRL1 (Homo sapiens, UniProt P37023)
# T26 construct: host or cells: E. coli (BL21-derived), T7 phage lysate
# Procedure, shortened: as §1
# MAP4K4 = target: T27, MAP4K4 (Homo sapiens, UniProt O95819)
# T27 construct: host or cells: E. coli host derived from the BL21 strain, infected with T7 phage
# Procedure, shortened: as §1
# CDK5 = target: T28, CDK5 (Homo sapiens, UniProt Q00535)
# T28 construct: host or cells: T7 phage in E. coli host derived from BL21
# Procedure, shortened: as §1
# T11 sequence (Q8TD08 whole entry): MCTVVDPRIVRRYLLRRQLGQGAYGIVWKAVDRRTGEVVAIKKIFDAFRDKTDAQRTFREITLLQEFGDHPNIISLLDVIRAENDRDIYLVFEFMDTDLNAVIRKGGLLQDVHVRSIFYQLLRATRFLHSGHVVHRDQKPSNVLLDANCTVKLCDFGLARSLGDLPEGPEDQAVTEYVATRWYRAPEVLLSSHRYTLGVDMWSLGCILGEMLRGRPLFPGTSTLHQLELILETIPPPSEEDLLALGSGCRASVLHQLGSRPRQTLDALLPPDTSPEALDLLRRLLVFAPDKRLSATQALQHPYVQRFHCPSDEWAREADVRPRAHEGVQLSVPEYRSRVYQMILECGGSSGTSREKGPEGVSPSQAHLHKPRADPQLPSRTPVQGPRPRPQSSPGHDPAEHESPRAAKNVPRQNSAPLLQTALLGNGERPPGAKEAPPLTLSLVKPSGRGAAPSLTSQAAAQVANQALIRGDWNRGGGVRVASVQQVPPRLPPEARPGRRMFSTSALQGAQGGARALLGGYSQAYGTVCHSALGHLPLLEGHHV
# T13 sequence (P00533 with tags, fused parts or gaps DEL747-749/A750P): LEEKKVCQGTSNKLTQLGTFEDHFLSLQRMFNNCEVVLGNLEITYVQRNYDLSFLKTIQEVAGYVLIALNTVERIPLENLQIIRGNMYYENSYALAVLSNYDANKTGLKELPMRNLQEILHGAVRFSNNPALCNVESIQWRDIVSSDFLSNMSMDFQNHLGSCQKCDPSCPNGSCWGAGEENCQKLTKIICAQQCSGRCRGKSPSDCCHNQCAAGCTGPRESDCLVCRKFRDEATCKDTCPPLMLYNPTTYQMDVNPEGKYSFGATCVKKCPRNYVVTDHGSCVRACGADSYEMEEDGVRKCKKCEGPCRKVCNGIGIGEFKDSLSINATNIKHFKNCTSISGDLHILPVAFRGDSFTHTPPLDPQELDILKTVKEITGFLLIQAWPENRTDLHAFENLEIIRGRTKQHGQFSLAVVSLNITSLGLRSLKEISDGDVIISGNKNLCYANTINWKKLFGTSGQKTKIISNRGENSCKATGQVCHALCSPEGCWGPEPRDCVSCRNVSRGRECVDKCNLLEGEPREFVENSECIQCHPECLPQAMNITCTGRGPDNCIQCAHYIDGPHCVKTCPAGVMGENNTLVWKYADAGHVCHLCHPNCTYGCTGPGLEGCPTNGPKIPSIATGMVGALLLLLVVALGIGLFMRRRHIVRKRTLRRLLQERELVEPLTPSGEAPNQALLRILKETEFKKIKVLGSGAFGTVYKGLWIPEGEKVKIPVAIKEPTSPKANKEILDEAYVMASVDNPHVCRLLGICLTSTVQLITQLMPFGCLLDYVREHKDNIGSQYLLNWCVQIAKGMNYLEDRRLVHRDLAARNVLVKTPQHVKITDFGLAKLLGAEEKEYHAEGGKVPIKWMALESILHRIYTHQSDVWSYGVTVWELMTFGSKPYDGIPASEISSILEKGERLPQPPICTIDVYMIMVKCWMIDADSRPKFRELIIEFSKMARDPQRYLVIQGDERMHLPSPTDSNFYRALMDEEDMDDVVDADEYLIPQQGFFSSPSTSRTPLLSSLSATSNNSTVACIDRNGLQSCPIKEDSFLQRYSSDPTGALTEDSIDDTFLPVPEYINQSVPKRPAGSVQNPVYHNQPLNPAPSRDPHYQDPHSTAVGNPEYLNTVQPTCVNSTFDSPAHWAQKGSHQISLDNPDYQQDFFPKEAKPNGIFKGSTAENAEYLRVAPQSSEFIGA
# T25 sequence (P27448 whole entry): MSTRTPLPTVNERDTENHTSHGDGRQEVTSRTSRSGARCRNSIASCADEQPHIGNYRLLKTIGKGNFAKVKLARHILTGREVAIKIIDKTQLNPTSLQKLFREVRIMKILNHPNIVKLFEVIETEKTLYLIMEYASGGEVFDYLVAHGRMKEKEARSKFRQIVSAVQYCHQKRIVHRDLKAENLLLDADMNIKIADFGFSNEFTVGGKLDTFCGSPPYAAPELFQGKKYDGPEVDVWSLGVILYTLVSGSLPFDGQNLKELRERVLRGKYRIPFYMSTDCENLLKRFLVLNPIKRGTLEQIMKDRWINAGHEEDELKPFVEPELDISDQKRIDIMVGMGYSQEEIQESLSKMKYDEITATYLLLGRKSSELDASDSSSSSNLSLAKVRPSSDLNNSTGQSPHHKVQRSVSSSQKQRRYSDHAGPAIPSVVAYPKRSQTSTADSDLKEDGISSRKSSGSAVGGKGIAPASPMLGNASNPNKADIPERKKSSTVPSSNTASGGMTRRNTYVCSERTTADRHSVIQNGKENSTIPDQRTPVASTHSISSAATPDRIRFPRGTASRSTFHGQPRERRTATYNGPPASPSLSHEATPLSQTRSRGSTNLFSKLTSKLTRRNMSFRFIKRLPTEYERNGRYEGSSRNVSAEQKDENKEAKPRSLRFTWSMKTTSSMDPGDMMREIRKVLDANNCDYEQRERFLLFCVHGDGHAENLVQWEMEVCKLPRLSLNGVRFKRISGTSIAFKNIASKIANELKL
# T6 sequence (Q9C098 whole entry): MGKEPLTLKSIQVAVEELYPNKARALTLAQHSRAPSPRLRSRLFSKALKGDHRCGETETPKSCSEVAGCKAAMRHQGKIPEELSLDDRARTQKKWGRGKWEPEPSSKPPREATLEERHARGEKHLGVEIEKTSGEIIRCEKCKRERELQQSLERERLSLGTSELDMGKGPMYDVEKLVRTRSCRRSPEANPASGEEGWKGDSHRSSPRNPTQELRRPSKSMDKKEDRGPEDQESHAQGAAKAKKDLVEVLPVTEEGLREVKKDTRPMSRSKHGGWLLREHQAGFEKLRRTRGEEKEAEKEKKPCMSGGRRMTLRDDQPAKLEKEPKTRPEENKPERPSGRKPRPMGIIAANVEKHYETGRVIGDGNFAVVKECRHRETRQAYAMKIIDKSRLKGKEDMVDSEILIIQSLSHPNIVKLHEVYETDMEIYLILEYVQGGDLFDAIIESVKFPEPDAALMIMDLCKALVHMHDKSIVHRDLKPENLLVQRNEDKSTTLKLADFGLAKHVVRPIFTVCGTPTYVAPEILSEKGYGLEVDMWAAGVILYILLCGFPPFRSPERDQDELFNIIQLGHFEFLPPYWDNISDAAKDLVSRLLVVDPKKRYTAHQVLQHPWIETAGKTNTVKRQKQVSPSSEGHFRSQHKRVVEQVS
# T14 sequence (P45985 whole entry): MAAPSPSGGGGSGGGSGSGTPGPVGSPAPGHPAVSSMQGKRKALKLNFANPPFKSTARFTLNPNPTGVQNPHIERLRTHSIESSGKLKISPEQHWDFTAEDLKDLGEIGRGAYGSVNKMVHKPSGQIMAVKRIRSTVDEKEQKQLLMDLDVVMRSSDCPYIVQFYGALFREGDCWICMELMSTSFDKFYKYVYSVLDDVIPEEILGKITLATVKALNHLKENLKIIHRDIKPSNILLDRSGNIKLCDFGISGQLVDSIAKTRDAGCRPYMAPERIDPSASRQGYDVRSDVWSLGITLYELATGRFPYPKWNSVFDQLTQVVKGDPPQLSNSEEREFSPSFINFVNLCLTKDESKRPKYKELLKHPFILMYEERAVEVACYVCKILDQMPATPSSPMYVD
# T17 sequence (Q8N568 whole entry): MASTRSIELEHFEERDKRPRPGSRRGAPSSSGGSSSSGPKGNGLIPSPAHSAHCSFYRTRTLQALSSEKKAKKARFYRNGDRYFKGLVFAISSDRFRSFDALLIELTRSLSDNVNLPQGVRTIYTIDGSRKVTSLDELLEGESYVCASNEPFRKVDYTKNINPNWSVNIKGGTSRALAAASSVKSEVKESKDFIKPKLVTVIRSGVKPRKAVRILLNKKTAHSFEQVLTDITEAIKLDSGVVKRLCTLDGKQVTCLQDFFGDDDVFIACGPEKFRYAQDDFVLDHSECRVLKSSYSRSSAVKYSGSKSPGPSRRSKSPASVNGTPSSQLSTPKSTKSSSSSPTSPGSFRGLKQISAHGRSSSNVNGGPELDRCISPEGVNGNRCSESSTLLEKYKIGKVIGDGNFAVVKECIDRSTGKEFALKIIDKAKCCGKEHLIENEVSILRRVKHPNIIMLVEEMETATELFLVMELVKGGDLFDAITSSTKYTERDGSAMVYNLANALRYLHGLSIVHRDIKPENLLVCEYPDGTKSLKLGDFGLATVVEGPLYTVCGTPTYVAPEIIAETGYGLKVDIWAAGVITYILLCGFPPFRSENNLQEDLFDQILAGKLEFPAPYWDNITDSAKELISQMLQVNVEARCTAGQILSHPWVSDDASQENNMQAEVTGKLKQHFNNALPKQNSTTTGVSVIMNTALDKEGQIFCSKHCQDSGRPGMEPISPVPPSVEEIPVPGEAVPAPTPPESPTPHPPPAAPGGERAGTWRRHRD
# T23 sequence (Q15349 59-318 limits assumed): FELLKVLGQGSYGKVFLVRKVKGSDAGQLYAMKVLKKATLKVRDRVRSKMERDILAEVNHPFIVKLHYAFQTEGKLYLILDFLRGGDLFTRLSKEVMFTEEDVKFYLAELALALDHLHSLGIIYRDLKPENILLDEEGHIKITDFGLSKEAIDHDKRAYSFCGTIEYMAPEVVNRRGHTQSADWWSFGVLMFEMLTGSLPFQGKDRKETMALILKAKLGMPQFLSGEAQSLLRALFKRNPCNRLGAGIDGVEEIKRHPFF
# T28 sequence (Q00535 whole entry): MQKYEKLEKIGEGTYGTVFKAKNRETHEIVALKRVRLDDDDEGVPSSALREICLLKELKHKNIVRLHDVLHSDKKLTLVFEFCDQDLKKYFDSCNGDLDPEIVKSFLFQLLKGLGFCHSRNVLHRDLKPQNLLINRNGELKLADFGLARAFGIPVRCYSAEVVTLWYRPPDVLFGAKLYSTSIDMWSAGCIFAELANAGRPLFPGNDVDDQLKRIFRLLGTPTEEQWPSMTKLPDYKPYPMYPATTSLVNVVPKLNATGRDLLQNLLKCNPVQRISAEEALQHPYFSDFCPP
smiles,measurement,setting,value
"C#Cc1cccc(Nc2ncnc3cc(OC)c(OCCCN4CCOCC4)cc23)c1 [NRC-2694, N-(3-ethynylphenyl)-7-methoxy-6-[3-(4-morpholinyl)propoxy]-4-quinazolinamine]",remaining binding at 10 µM,TNIK,17%
same,remaining binding at 10 µM,KIT(D816V),17%
same,remaining binding at 10 µM,[1],49%
same,remaining binding at 10 µM,PRKCH,83%
same,remaining binding at 10 µM,BRSK1,53%
same,remaining binding at 10 µM,DCAMKL3,14%
same,remaining binding at 10 µM,[2],97%
same,remaining binding at 10 µM,NEK1,66%
same,remaining binding at 10 µM,DRAK2,58%
same,remaining binding at 10 µM,NEK9,85%
same,remaining binding at 10 µM,ERK8,62%
same,remaining binding at 10 µM,SYK,56%
same,remaining binding at 10 µM,[3],0%
same,remaining binding at 10 µM,MEK4,92%
same,remaining binding at 10 µM,CLK2,64%
same,remaining binding at 10 µM,PCTK3,82%
same,remaining binding at 10 µM,DCAMKL2,69%
same,remaining binding at 10 µM,LIMK1,62%
same,remaining binding at 10 µM,ABL1(Q252H),15%
same,remaining binding at 10 µM,TAOK1,54%
same,remaining binding at 10 µM,EGFR(L858R),0%
same,remaining binding at 10 µM,FYN,41%
same,remaining binding at 10 µM,[4],70%
same,remaining binding at 10 µM,[5],94%
same,remaining binding at 10 µM,MARK3,62%
same,remaining binding at 10 µM,ACVRL1,91%
same,remaining binding at 10 µM,MAP4K4,20%
same,remaining binding at 10 µM,CDK5,100%
